# Results as given in US6677310B1, “Ring-expanded nucleosides and nucleotides” (Nabi, priority 1999, dated 2004).
# Tested on: NCI-H522
# Assay type: cell-based, human
# Conditions: NCI-H522 (Non-Small Cell Lung Cancer), 48 h
structure (smiles),measurement,setting,value
"N=c1[nH]c(=O)c2ncn([C@@H]3O[C@H](CO)[C@@H](O)[C@H]3O)c2c(=O)[nH]1 [Compound 14-1, 6-Imino-6H-1-β-D-ribofuranosyl-4,5,7,8-tetrahydroimidazo[4,5-e][1,3]diazepine-4,8-dione]",GI50,,> 100 µM
same,TGI,,>100 µM
same,CC50,read-out: LC50 (the source's name),> 100 µM
